Values of other authors, collected in US20170027963A1, “DELIVERY OF NON-STEROIDAL AGENTS TO THE BRAIN VIA THE NASAL TRACT TO TREAT NEUROLOGICAL DISORDERS” (priority 2014, published 2017).

Details: prescribed ibuprofen for more than five years vs those who did not; US veterans aged 55 and older

SMILES: CC(C)Cc1ccc(C(C)C(=O)O)cc1 (stereo not shown) [ibuprofen]
- less likely to develop Alzheimer's disease: 40%
